Experimental data published in patent US4416891A, “Ester of 6-[(hexahydro-1H-azepin-1-yl)methyleneamino]penicillanic acid, and its use as antibacterial agent” (priority 1981, dated 1983).
Structures can show the parent of a compound that is named as a salt. Where two headings read alike, the source gives them in different places.

Columns and labels:
[1] = Stability in an artificial intestinal juice (bioautography); format: in vitro ADME; details: pH about 6.8, 37° C.
Experimental: Stability in an artificial intestinal juice
(§1) (b) Experimental procedure
A test solution was prepared in the same way as in Test Example 1, (b), (1) except that the artificial intestinal juice described in The Pharmacopoeia of Japan, 10th edition (having a pH of about 6.8 and prepared by adding water to 250 ml of a 0.2 M aqueous solution of potassium dihydrogen phosphate and 118 ml of a 0.2 N aqueous solution of sodium hydroxide to form a solution having a total volume of 1000 ml) was used instead of the artificial gastric juice.
Performed in the same way as in Test Example 1, (b), (2).

[2] = Stability in mouse serum (bioautography); format: in vitro ADME; details: 40% mouse serum, 37° C., pH 7.4 phosphate buffer
Experimental: as §1
4 ml of mouse serum was added to 5.6 ml of 0.1 M phosphate buffer (pH 7.4), and then a portion (0.4 ml) of a solution of 20 mg of compound (I).HCl.H2 O in 1 ml of dimethyl sulfoxide was added. The solution was kept at 37° C. for 10 minutes to form a test solution.
The test solution obtained in (1) above was subjected to the same operation as in Example 1, (b), (2).

[3] = Toxicity test: acute toxicity (LD50) in oral administration; details: mouse, in vivo, male ddY-strain mice, five per group
Description: The acute toxicity (LD50) of compound (I).HCl.H2 O and Pivmecillinam.HCl in oral administration was examined by using male ddY-strain mice (body weight 22 to 25 g; five per group).

Escherichia coli NIHJ = test: Antibacterial activity in oral administration to mice (inhibitory zone of serum samples); format: in vivo; details: male ddY mice, dose corresponding to 50 mg/kg of Mecillinam, average of n=4, read-out: Diameter of the inhibitory zone
Experimental: Antibacterial activity in oral administration to mice
Compound (I).HCl.H2 O and Pivmecillinam.HCl.
as §1
Male ddY mice (6 weeks old, body weight 28±2 g) were used. They were caused to fast for 16 hours before the administration of the test compounds.
An aqueous solution (5 mg/ml) of each of the test compounds was prepared, and orally administered to mice (five per group) in a dose corresponding to 50 mg/kg of Mecillinam.
Blood samples were taken individually from five mice in each group at 30, 60 and 90 minutes after the administration of each compound. The blood samples were immediately centrifuged individually at 3,000 rpm for 15 minutes, and serum samples obtained (each in an amount of 0.2 ml) were combined to give 1 ml of serum for assaying.
(4) Measurement of antibacterial activity
0.2 ml of a suspension of Escherichia coli NIHJ as test organism was added to 5 ml of nutrient agar kept at about 48° C. to give an agar plate. The assaying serum prepared in (3) above was infiltrated into a paper disc (a thick type with a diameter of 8 mm, supplied by Toyo Filter Paper Co., Ltd.), and the paper disc was placed on the agar plate (n=4). It was maintained at 37° C. for 18 hours, and the diameter of the resulting inhibitory zone was measured with respect to each of the serum samples.
The diameter of the inhibitory zone (an average of n=4) measured with respect to each of the serum samples was as shown in Table 1.

[4] = Stability in an artificial gastric juice (bioautography); format: in vitro ADME; details: pH about 1.2, 37° C.
Experimental: Stability in an artificial gastric juice
(5-methyl-2-oxo-1,3-dioxolen-4-yl)methyl 6-[(hexahydro-1H-azepin-1-yl)methleneamino]penicillanate hydrochloride monohydrate [compound (I).HCl.H2 O]
as §1
A solution of 2 mg of compound (I).HCl.H2 O in 0.2 ml of dimethyl sulfoxide was added to 3.8 ml of the artificial gastric juice described in The Pharmacopoeia of Japan, 10th edition (having a pH of about 1.2 and prepared by adding 24.0 ml of 10% HCl to 2.0 g of sodium chloride and adding water to adjust the total amount to 1000 ml). The solution was maintained at 37° C., and bioautographed as shown below after the lapse of 10 minutes, 30 minutes, and 50 minutes, respectively.
(i) The test solution was spotted on a cellulose plate [Cellulose F (Art 5718 supplied by Merck & Co.)] for thin-layer chromatography, and developed with the upper layer of a mixture of n-butanol, ethanol and water in a ratio of 4:1:5. The plate was dried in the air, and a 10% aqueous solution of mouse serum was sprayed onto the plate. […]
(iv) After the cultivation, the position (Rf value) of an inhibitory zone on the plate against E. coli NIHJ was determined. From this Rf value and Rf values of compound (I).HCl.H2 O and Mecillinam (X) separately determined under the same conditions as in (i) to (iii) above, the compound in the test solution was identified. […]

[5] = cited from earlier work
[6] = system: Gram-negative bacteria, especially Escherichia coli and Klebsiella pneumoniae; details: compared with Gram-positive bacteria; cited from earlier work
[7] = oral, man, 400 mg; cited from earlier work
[8] = 0.5 h, blood letting time 30 min
[9] = in Mus musculus, blood letting time 90 min

Row | Structure (SMILES) | stability in the artificial intestinal juice [1] | transformation to Mecillinam (X) in mouse serum [2] | LD50 [3] [mg/kg] | zone of inhibition at 50 mg/kg (Escherichia coli NIHJ; [8]) [mm] | zone of inhibition at 50 mg/kg (Escherichia coli NIHJ; 1 h, blood letting time 60 min) [mm] | zone of inhibition at 50 mg/kg (Escherichia coli NIHJ; [9]) [mm] | period of stability in the artificial gastric juice [4] | absorbability or bioavailability in oral administration [5] | antibacterial spectrum [6] | urinary excretion after the 6 hour period [7] [%]
1 | Cc1oc(=O)oc1COC(=O)[C@@H]1N2C(=O)[C@@H](N=CN3CCCCCC3)[C@H]2SC1(C)C [Compound (I).HCl.H2 O, (5-methyl-2-oxo-1,3-dioxolen-4-yl)methyl 6-[(hexahydro-1H-azepin-1-yl)methleneamino]penicillanate hydrochloride monohydrate] | stable in the artificial intestinal juice | transformed to Mecillinam (X) in 40% mouse serum within ten minutes at 37 °C | 5210 | 23.3 | 20 | 17.2 | more than 50 minutes | – | – | –
2 | CC1(C)S[C@@H]2[C@H](N=CN3CCCCCC3)C(=O)N2[C@H]1C(=O)O [Mecillinam (X), 6-[(hexahydro-1H-azepin-1yl)methyleneamino]penicillanic acid] | – | – | – | – | – | – | – | low | stronger activity against Gram-negative bacteria, especially Escherichia coli and Klebsiella pneumoniae, than against Gram-positive bacteria | –
3 | CC(C)(C)C(=O)OCOC(=O)[C@@H]1N2C(=O)[C@@H](N=CN3CCCCCC3)[C@H]2SC1(C)C [Pivmecillinam (X')] | – | – | – | – | – | – | – | – | – | 45
4 | CC(C)(C)C(=O)OCOC(=O)[C@@H]1N2C(=O)[C@@H](N=CN3CCCCCC3)[C@H]2SC1(C)C [Pivmecillinam.HCl] | – | – | 3840 | 23.2 | 20.8 | 18 | – | – | – | –
